This experiment relates to NFκB activity. As to the kind of experiment: Glucocorticoid Mediated Transrepression of NFκB Activity (A549 ELAM promoter alkaline phosphatase reporter). Type of experiment: cell-based. The note with it: Human A549 lung epithelial cells, 3 ng/ml human recombinant TNFα, 16 hours, read-out: pEC50, transrepression of NFκB activity (converted). The text has this: Human A549 lung epithelial cells were engineered to contain a secreted placental alkaline phosphatase gene under the control of the distal region of the NFκB dependent ELAM promoter as previously described in Ray, K. P., Farrow, S., Daly, M., Talabot, F. and Searle, N. “Induction of the E-selectin promoter by interleukin 1 and tumour necrosis factor alpha, and inhibition by glucocorticoids” Biochemical Journal (1997) 328: 707-15.
Compounds were solvated and diluted in DMSO, and transferred directly into assay plates such that the final concentration of DMSO was 0.7%. Following the addition of cells (40K per well), plates were incubated for 1 hour prior to the addition of 3 ng/ml human recombinant TNFα. Following continued incubation for 16 hours, alkaline phosphatase activity was determined by measuring the change in optical density at 405 nm with time following the addition of 0.7 volumes of assay buffer (1 mg/ml p-nitrophenylphosphate dissolved in 1M diethanolamine, 0.28M NaCl, 0.5 mM MgCl2). Dose response curves were constructed from which EC50 values were estimated.
In the case of `CCN(CC(O)(CNc1cccc2c1cnn2-c1ccccc1)C(F)(F)F)C(=O)c1ccccc1F` (single isomer, unassigned) [Example 3A, N-Ethyl-2-fluoro-N-(3,3,3-trifluoro-2-hydroxy-2-{[(1-phenyl-1H-indazol-4-yl)amino]methyl}propyl)benzamide], the EC50 is no more than 10 nM.

As to `CCN(CC(O)(CNc1cccc2c1cnn2-c1ccc(F)cc1)C(F)(F)F)C(=O)c1ccccc1C` (single isomer, unassigned) [Example 6A, N-Ethyl-2-methyl-N-[3,3,3-trifluoro-2-({[1-(4-fluorophenyl)-1H-indazol-4-yl]amino}methyl)-2-hydroxypropyl]benzamide], the EC50 was no more than 10 nM. As to `CCN(CC(O)(CNc1cccc2c1cnn2-c1ccc(F)cc1)C(F)(F)F)C(=O)c1ccccc1F` (single isomer, unassigned) [Example 7A, N-Ethyl-2-fluoro-N-[3,3,3-trifluoro-2-({[1-(4-fluorophenyl)-1H-indazol-4-yl]amino}methyl)-2-hydroxypropyl]benzamide], the EC50 is no more than 10 nM. The same measure for `CCN(CC(O)(CNc1cccc2c1cnn2-c1ccc(F)cc1)C(F)(F)F)C(=O)c1ccccc1F` (stereo not shown) [Example 7, N-Ethyl-2-fluoro-N-[3,3,3-trifluoro-2-({[1-(4-fluorophenyl)-1H-indazol-4-yl]amino}methyl)-2-hydroxypropyl]benzamide]: no more than 10 nM.

(Values after US7947727B2, “Compounds” (GlaxoGroupLimited, priority 2006, dated 2011).)
